Test results taken from ChEMBL document CHEMBL5724914, “Linking interpersonal differences in gut microbiota composition and drug biotransformation activity” (2024).

Legend:
[1] = (§1) The drug is tested on WLS-038 corresponding to human gut metagenome with ENA study accession number: PRJEB37062 and ENA sample accession number: ERS12561745 for biotransformation under anaerobic condition. The drug concentrations were measured over 9 timepoints collected between 0 and 24 hours of incubation by liquid-chromatography-coupled mass spectrometry (LC–MS); settings: 2 µM
[2] = human gut metagenome, 24 h, 2 µM
[3] = as §1, with “WLS-350” for “WLS-038”, “ERS12561789” for “ERS12561745”; settings: 2 µM
[4] = human gut metagenome, 24 h, 2 µM; remark: listed apart in the source
[5] = human gut metagenome, 24 h, 2 µM; remark: listed apart in the source
[6] = as §1, with “WLS-240” for “WLS-038”, “ERS12561773” for “ERS12561745”; settings: 2 µM
[7] = as §1, with “Z-025” for “WLS-038”, “rabbit” for “human”, “ERS12561824” for “ERS12561745”; settings: 2 µM
[8] = human gut metagenome, 24 h, 2 µM; remark: listed apart in the source
[9] = human gut metagenome, 24 h, 2 µM; remark: listed apart in the source
[10] = human gut metagenome, 24 h, 2 µM; remark: listed apart in the source
[11] = as §1, with “Z-003” for “WLS-038”, “pig” for “human”, “ERS12561803” for “ERS12561745”; settings: 2 µM
[12] = human gut metagenome, 24 h, 2 µM; remark: listed apart in the source
[13] = as §1, with “Z-016” for “WLS-038”, “mouse” for “human”, “ERS12561815” for “ERS12561745”; settings: 2 µM
[14] = as §1, with “Z-004” for “WLS-038”, “to” for “to human gut”, “ERS12561804” for “ERS12561745”; settings: 2 µM
[15] = human gut metagenome, 24 h, 2 µM; remark: listed apart in the source
[16] = human gut metagenome, 24 h, 2 µM; remark: listed apart in the source
[17] = as §1, with “WLS-077” for “WLS-038”, “ERS12561750” for “ERS12561745”; settings: 2 µM
[18] = as §1, with “Z-008” for “WLS-038”, “to” for “to human gut”, “ERS12561808” for “ERS12561745”; settings: 2 µM
[19] = human gut metagenome, 24 h, 2 µM; remark: listed apart in the source
[20] = as §1, with “Z-022” for “WLS-038”, “mouse” for “human”, “ERS12561821” for “ERS12561745”; settings: 2 µM
Note: call rule not given here.

CC(=O)OCC(CCn1cnc2cnc(N)nc21)COC(C)=O [FAMCICLOVIR]
Bacterial Biotransformation [1]: Compound metabolized | Bacterial Biotransformation [2]: Compound metabolized | Bacterial Biotransformation [3]: Compound metabolized | Bacterial Biotransformation [4]: Compound metabolized | Bacterial Biotransformation [5]: Compound metabolized | Bacterial Biotransformation [6]: Compound metabolized | Bacterial Biotransformation [7]: Compound metabolized | Bacterial Biotransformation [8]: Compound metabolized | Bacterial Biotransformation [9]: Compound metabolized | Bacterial Biotransformation [10]: Compound metabolized | Bacterial Biotransformation [11]: Compound metabolized | Bacterial Biotransformation [12]: Compound metabolized | Bacterial Biotransformation [13]: Compound NOT metabolized | Bacterial Biotransformation [14]: Compound NOT metabolized | Bacterial Biotransformation [15]: Compound metabolized | Bacterial Biotransformation [16]: Compound metabolized | Bacterial Biotransformation [17]: Compound metabolized | Bacterial Biotransformation [18]: Compound metabolized | Bacterial Biotransformation [19]: Compound metabolized | Bacterial Biotransformation [20]: Compound NOT metabolized

CC(C)(C)NC(=O)[C@H]1CC[C@H]2[C@@H]3CC[C@H]4NC(=O)C=C[C@]4(C)[C@H]3CC[C@]12C [FINASTERIDE]
Bacterial Biotransformation [1]: Compound metabolized | Bacterial Biotransformation [2]: Compound metabolized | Bacterial Biotransformation [3]: Compound metabolized | Bacterial Biotransformation [4]: Compound metabolized | Bacterial Biotransformation [5]: Compound metabolized | Bacterial Biotransformation [6]: Compound metabolized | Bacterial Biotransformation [7]: Compound NOT metabolized | Bacterial Biotransformation [8]: Compound metabolized | Bacterial Biotransformation [9]: Compound metabolized | Bacterial Biotransformation [10]: Compound NOT metabolized | Bacterial Biotransformation [11]: Compound metabolized | Bacterial Biotransformation [12]: Compound metabolized | Bacterial Biotransformation [13]: Compound metabolized | Bacterial Biotransformation [14]: Compound NOT metabolized | Bacterial Biotransformation [15]: Compound metabolized | Bacterial Biotransformation [16]: Compound metabolized | Bacterial Biotransformation [17]: Compound metabolized | Bacterial Biotransformation [18]: Compound NOT metabolized | Bacterial Biotransformation [19]: Compound metabolized | Bacterial Biotransformation [20]: Compound metabolized

CC1Cc2ccccc2N1NC(=O)c1ccc(Cl)c(S(N)(=O)=O)c1 (stereo not given) [INDAPAMIDE]
Bacterial Biotransformation [1]: Compound NOT metabolized | Bacterial Biotransformation [2]: Compound NOT metabolized | Bacterial Biotransformation [3]: Compound NOT metabolized | Bacterial Biotransformation [4]: Compound NOT metabolized | Bacterial Biotransformation [5]: Compound NOT metabolized | Bacterial Biotransformation [6]: Compound NOT metabolized | Bacterial Biotransformation [7]: Compound NOT metabolized | Bacterial Biotransformation [8]: Compound NOT metabolized | Bacterial Biotransformation [9]: Compound NOT metabolized | Bacterial Biotransformation [10]: Compound NOT metabolized | Bacterial Biotransformation [11]: Compound NOT metabolized | Bacterial Biotransformation [12]: Compound NOT metabolized | Bacterial Biotransformation [13]: Compound NOT metabolized | Bacterial Biotransformation [14]: Compound NOT metabolized | Bacterial Biotransformation [15]: Compound NOT metabolized | Bacterial Biotransformation [16]: Compound NOT metabolized | Bacterial Biotransformation [17]: Compound NOT metabolized | Bacterial Biotransformation [18]: Compound NOT metabolized | Bacterial Biotransformation [19]: Compound NOT metabolized | Bacterial Biotransformation [20]: Compound NOT metabolized

COc1ccc2c(c1)c(CC(=O)O)c(C)n2C(=O)c1ccc(Cl)cc1 [INDOMETHACIN]
Bacterial Biotransformation [1]: Compound metabolized | Bacterial Biotransformation [2]: Compound metabolized | Bacterial Biotransformation [3]: Compound metabolized | Bacterial Biotransformation [4]: Compound metabolized | Bacterial Biotransformation [5]: Compound metabolized | Bacterial Biotransformation [6]: Compound metabolized | Bacterial Biotransformation [7]: Compound NOT metabolized | Bacterial Biotransformation [8]: Compound metabolized | Bacterial Biotransformation [9]: Compound metabolized | Bacterial Biotransformation [10]: Compound metabolized | Bacterial Biotransformation [11]: Compound NOT metabolized | Bacterial Biotransformation [12]: Compound metabolized | Bacterial Biotransformation [13]: Compound NOT metabolized | Bacterial Biotransformation [14]: Compound NOT metabolized | Bacterial Biotransformation [15]: Compound metabolized | Bacterial Biotransformation [16]: Compound metabolized | Bacterial Biotransformation [17]: Compound metabolized | Bacterial Biotransformation [18]: Compound NOT metabolized | Bacterial Biotransformation [19]: Compound metabolized | Bacterial Biotransformation [20]: Compound NOT metabolized

CC(CCc1ccccc1)NCC(O)c1ccc(O)c(C(N)=O)c1 (stereo not given) [LABETALOL]
Bacterial Biotransformation [1]: Compound NOT metabolized | Bacterial Biotransformation [2]: Compound metabolized | Bacterial Biotransformation [3]: Compound NOT metabolized | Bacterial Biotransformation [4]: Compound NOT metabolized | Bacterial Biotransformation [5]: Compound NOT metabolized | Bacterial Biotransformation [6]: Compound metabolized | Bacterial Biotransformation [7]: Compound metabolized | Bacterial Biotransformation [8]: Compound NOT metabolized | Bacterial Biotransformation [9]: Compound NOT metabolized | Bacterial Biotransformation [10]: Compound NOT metabolized | Bacterial Biotransformation [11]: Compound NOT metabolized | Bacterial Biotransformation [12]: Compound NOT metabolized | Bacterial Biotransformation [13]: Compound NOT metabolized | Bacterial Biotransformation [14]: Compound NOT metabolized | Bacterial Biotransformation [15]: Compound NOT metabolized | Bacterial Biotransformation [16]: Compound NOT metabolized | Bacterial Biotransformation [17]: Compound NOT metabolized | Bacterial Biotransformation [18]: Compound NOT metabolized | Bacterial Biotransformation [19]: Compound metabolized | Bacterial Biotransformation [20]: Compound metabolized

Nc1nnc(-c2cccc(Cl)c2Cl)c(N)n1 [LAMOTRIGINE]
Bacterial Biotransformation [1]: Compound NOT metabolized | Bacterial Biotransformation [2]: Compound metabolized | Bacterial Biotransformation [3]: Compound NOT metabolized | Bacterial Biotransformation [4]: Compound NOT metabolized | Bacterial Biotransformation [5]: Compound NOT metabolized | Bacterial Biotransformation [6]: Compound metabolized | Bacterial Biotransformation [7]: Compound NOT metabolized | Bacterial Biotransformation [8]: Compound NOT metabolized | Bacterial Biotransformation [9]: Compound NOT metabolized | Bacterial Biotransformation [10]: Compound NOT metabolized | Bacterial Biotransformation [11]: Compound NOT metabolized | Bacterial Biotransformation [12]: Compound NOT metabolized | Bacterial Biotransformation [13]: Compound NOT metabolized | Bacterial Biotransformation [14]: Compound NOT metabolized | Bacterial Biotransformation [15]: Compound NOT metabolized | Bacterial Biotransformation [16]: Compound NOT metabolized | Bacterial Biotransformation [17]: Compound NOT metabolized | Bacterial Biotransformation [18]: Compound NOT metabolized | Bacterial Biotransformation [19]: Compound NOT metabolized | Bacterial Biotransformation [20]: Compound NOT metabolized

OC(c1cc(C(F)(F)F)nc2c(C(F)(F)F)cccc12)C1CCCCN1 (stereo not given) [MEFLOQUINE]
Bacterial Biotransformation [1]: Compound metabolized | Bacterial Biotransformation [2]: Compound metabolized | Bacterial Biotransformation [3]: Compound NOT metabolized | Bacterial Biotransformation [4]: Compound metabolized | Bacterial Biotransformation [5]: Compound metabolized | Bacterial Biotransformation [6]: Compound metabolized | Bacterial Biotransformation [7]: Compound NOT metabolized | Bacterial Biotransformation [8]: Compound NOT metabolized | Bacterial Biotransformation [9]: Compound NOT metabolized | Bacterial Biotransformation [10]: Compound NOT metabolized | Bacterial Biotransformation [11]: Compound metabolized | Bacterial Biotransformation [12]: Compound metabolized | Bacterial Biotransformation [13]: Compound NOT metabolized | Bacterial Biotransformation [14]: Compound NOT metabolized | Bacterial Biotransformation [15]: Compound NOT metabolized | Bacterial Biotransformation [16]: Compound NOT metabolized | Bacterial Biotransformation [17]: Compound metabolized | Bacterial Biotransformation [18]: Compound NOT metabolized | Bacterial Biotransformation [19]: Compound metabolized | Bacterial Biotransformation [20]: Compound metabolized

CC(=O)O[C@]1(C(C)=O)CC[C@H]2[C@@H]3C=C(C)C4=CC(=O)CC[C@]4(C)[C@H]3CC[C@@]21C [MEGESTROL ACETATE]
Bacterial Biotransformation [1]: Compound metabolized | Bacterial Biotransformation [2]: Compound metabolized | Bacterial Biotransformation [3]: Compound metabolized | Bacterial Biotransformation [4]: Compound metabolized | Bacterial Biotransformation [5]: Compound metabolized | Bacterial Biotransformation [6]: Compound metabolized | Bacterial Biotransformation [7]: Compound metabolized | Bacterial Biotransformation [8]: Compound metabolized | Bacterial Biotransformation [9]: Compound metabolized | Bacterial Biotransformation [10]: Compound metabolized | Bacterial Biotransformation [11]: Compound metabolized | Bacterial Biotransformation [12]: Compound metabolized | Bacterial Biotransformation [13]: Compound metabolized | Bacterial Biotransformation [14]: Compound metabolized | Bacterial Biotransformation [15]: Compound metabolized | Bacterial Biotransformation [16]: Compound metabolized | Bacterial Biotransformation [17]: Compound metabolized | Bacterial Biotransformation [18]: Compound NOT metabolized | Bacterial Biotransformation [19]: Compound metabolized | Bacterial Biotransformation [20]: Compound NOT metabolized
